In PMC11784839, “Monoaminergic neurotransmitters are bimodal effectors of tau aggregation” (Science Advances, 2025):

Target: tau (Homo sapiens, UniProt P10636)
Assay: MCE Phenols Library screening, tau biosensor cell seeding assay (AvZ)
Type: cell-based
Conditions: for Z repl 1 / Z Repl 2: Z score; for Z repl 1 / raw data 1: replicate 1; for Z Repl 2 / raw data 2: replicate 2; for AvZ (average z score of seeding, SDs from the mean level of seeding): 10 μM phenol in cell cultures, AD brain homogenate preincubated 16 hours, two biological replicates, positive = catalyzes seeding, negative = inhibits
[1] = average Z score of the two replicates, MCE Phenols Library screen
[2] = average puncta of the two replicates
[3] = average Z score of the two replicates, tau biosensor seeding, MCE Phenols Library screen
[4] = average Z score of two replicates, Phenols Library screen
[5] = average Z score of the two replicates, tau seeding

tau, sequence (P10636 623-695 limits assumed): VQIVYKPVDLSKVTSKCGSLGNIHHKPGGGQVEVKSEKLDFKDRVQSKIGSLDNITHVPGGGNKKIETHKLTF

| Z repl 1 | Z Repl 2 | av Z [1] | av puncta [2] | raw data 1 (puncta) | raw data 2 (puncta) | av Z [3] | av puncta (average of raw data 1 and 2) | av Z [4] | Compound | raw data 1 (raw puncta) | raw data 2 (raw puncta) | av Z [5] | AvZ (average z score of seeding, SDs from the mean level of seeding) |
| --- | --- | --- | --- | --- | --- | --- | --- | --- | --- | --- | --- | --- | --- |
| 1.152 | 0.927 | – | – | 40179 | 22670.4 | 1.04 | 31424.7 | – | O=c1c(O[C@@H]2O[C@H](CO)[C@@H](O)[C@H](O)[C@H]2O[C@@H]2O[C@H](CO)[C@@H](O)[C@H](O)[C@H]2O)c(-c2ccc(O)c(O)c2)oc2cc(O)cc(O)c12 [Baimaside] | – | – | – | – |
| -0.876 | -0.134 | -0.505 | 13584.6 | 15835.9 | 11333.2 | – | – | – | CC(C)=CCc1cc(C(=O)/C=C/c2ccc(O)cc2)c(O)cc1O [Bavachalcone] | – | – | – | – |
| -0.343 | -0.767 | -0.555 | 13401.9 | 22229.8 | 4573.9 | – | – | – | CC(C)=CCc1cc2c(cc1O)O[C@H](c1ccc(O)cc1)CC2=O [Bavachin] | – | – | – | – |
| 0.602 | -0.122 | – | – | 33572.4 | 11461.3 | – | 22516.9 | – | O=C(/C=C/c1ccc(O)cc1)CC(=O)/C=C/c1ccc(O)cc1 [Bisdemethoxycucurmin] | – | – | 0.24 | – |
| 0.124 | 0.085 | – | – | 27836.8 | 13670.7 | – | 20753.8 | 0.104 | CC(C)(c1ccc(O)cc1)c1ccc(O)cc1 [Bisphenol A] | – | – | – | – |
| -0.753 | -0.754 | -0.753 | 11011.8 | 17305.9 | 4717.73 | – | – | – | COc1cc(O)c2c(c1)O[C@H](c1cc(O)cc(O)c1)CC2=O [Blumeatin] | – | – | – | – |
| -0.564 | -0.743 | -0.654 | 12203.7 | 19572.7 | 4834.73 | – | – | – | Oc1ccc2c(c1)OC[C@]1(O)Cc3cc(O)c(O)cc3[C@H]21 [Brazilin] | – | – | – | – |
| -1.001 | -1.013 | -1.007 | – | 14330.3 | 1949.4 | – | 8139.85 | – | O=C1CC(C(=O)O)c2c1oc(=O)c1cc(O)c(O)c(O)c21 (stereo not shown) [Brevifolincarboxylic acid] | – | – | – | – |
| -0.211 | 0.15 | – | – | 23813.7 | 14367.8 | – | 19090.8 | -0.031 | O=C(/C=C/c1ccc(O)c(O)c1)c1ccc(O)cc1O [Butein] | – | – | – | – |
| -0.317 | -0.61 | – | 14397.2 | 22545.7 | 6248.57 | – | – | – | O=C(/C=C/c1ccc(O)c(O)c1)O[C@@H](C(=O)O)[C@@H](O)C(=O)O [Caftaric acid] | – | – | – | -0.464 |
| 0.11 | -0.703 | -0.297 | 16462.2 | – | – | – | – | – | O=C(/C=C/c1ccc(O)c(O)c1)OC[C@H]1O[C@@H](OCCc2ccc(O)c(O)c2)[C@H](O)[C@@H](O)[C@@H]1O [Calceolarioside B] | 27671.5 | 5252.85 | – | – |
| 0.722 | 1.127 | – | – | 35020 | 24797.2 | 0.924 | 29908.6 | – | COc1ccc(-c2coc3cc(O[C@@H]4O[C@H](CO)[C@@H](O)[C@H](O)[C@H]4O)ccc3c2=O)cc1O [Calycosin-7-O-?-D-glucoside] | – | – | – | – |
| 0.387 | -0.53 | – | – | 30989.7 | 7102.22 | – | 19046 | -0.072 | COc1ccc(-c2coc3cc(O)ccc3c2=O)cc1O [Calycosin] | – | – | – | – |
| 0.436 | -0.449 | – | – | 31586 | 7974.93 | – | 19780.5 | -0.006 | CC(C)c1cc2c(c(O)c1O)[C@@]13CCCC(C)(C)[C@@H]1C[C@@H]2OC3=O [Carnosol] | – | – | – | – |
| -0.542 | -0.523 | -0.532 | 13513.8 | 19846.5 | 7181.16 | – | – | – | Oc1cc(O)c2c(c1)O[C@H](c1ccc(O)c(O)c1)[C@@H](O)C2 [Catechin] | – | – | – | – |
| -2.151 | – | -1.662 | – | 523.863 | 241.827 | – | 382.845 | – | O=C(O)C[C@@H]1C(=O)O[C@H]2[C@@H]3OC(=O)c4cc(O)c(O)c(O)c4-c4c(cc(O)c(O)c4O)C(=O)OC[C@H]2O[C@@H](OC(=O)c2cc(O)c(O)c(O)c2)[C@@H]3OC(=O)c2cc(O)c(O)c3c2[C@H]1[C@H](O)C(=O)O3 [Chebulagic acid] | – | – | – | – |
| -1.01 | – | -1.092 | – | 14229.4 | 230.797 | – | 7230.09 | – | O=C(O)C[C@H](C(=O)O)[C@H]1c2c(cc(O)c(O)c2O)C(=O)O[C@@H]1C(=O)O [Chebulic acid] | – | – | – | – |

Further lines, the molecule ahead of its results:

| Compound | Z repl 1 | Z Repl 2 | av Z [1] | av puncta [2] | raw data 1 (puncta) | raw data 2 (puncta) | av Z [3] | av puncta (average of raw data 1 and 2) | av Z [4] | raw data 1 (raw puncta) | raw data 2 (raw puncta) | av Z [5] | AvZ (average z score of seeding, SDs from the mean level of seeding) |
| --- | --- | --- | --- | --- | --- | --- | --- | --- | --- | --- | --- | --- | --- |
| CC(=O)c1cc2c(CO)cc(O)cc2oc1=O [Armillarisin A] | -0.702 | 0.126 | -0.288 | 16013.9 | – | – | – | – | – | 17917.5 | 14110.3 | – | – |
| O=c1c(O[C@@H]2O[C@H](CO)[C@@H](O)[C@H](O)[C@H]2O)c(-c2ccc(O)cc2)oc2cc(O)cc(O)c12 [Astragalin] | -0.525 | -0.638 | -0.581 | 12999 | 20041.3 | 5956.82 | – | – | – | – | – | – | – |
| COC(=O)c1c(C)cc(OC(=O)c2c(C)cc(O)c(C=O)c2O)c(C)c1O [Atranorin] | -0.357 | -0.801 | -0.579 | 13136.9 | 22066.2 | 4207.53 | – | – | – | – | – | – | – |
| COc1c(O[C@@H]2O[C@H](CO)[C@@H](O)[C@H](O)[C@H]2O)cc2c(c1O)C(=O)c1c(cc(C)c(O)c1OC)C2=O [Aurantio-obtusin ?-D-glucoside] | -0.961 | -0.271 | -0.616 | 12342.8 | 14810.1 | 9875.55 | – | – | – | – | – | – | – |
| O=c1c(O[C@@H]2O[C@@H](CO)[C@H](O)[C@H]2O)c(-c2ccc(O)c(O)c2)oc2cc(O)cc(O)c12 [Avicularin] | 1.115 | 1.158 | – | – | 39734.3 | 25129.7 | 1.136 | 32432 | – | – | – | – | – |
| COc1cc(O)c2c(=O)c(OC)c(-c3ccc(OC)c(O)c3)oc2c1 [Ayanin] | -1.206 | -0.903 | -1.054 | – | 11871.6 | 3125.17 | – | 7498.38 | – | – | – | – | – |
| COc1ccc(-c2oc3c(CC=C(C)C)c(O)cc(O)c3c(=O)c2O[C@@H]2O[C@@H](C)[C@H](O)[C@@H](O)[C@H]2O)cc1 [Baohuoside I] | 0.959 | 1.521 | – | – | 37856.1 | 29012.8 | 1.24 | 33434.4 | – | – | – | – | – |
| COc1ccc2cc3[n+](cc2c1O)CCc1cc2c(cc1-3)OCO2.[Cl-] [Berberrubine (chloride)] | 0.031 | -0.189 | – | – | 26719.5 | 10748.8 | – | 18734.2 | -0.079 | – | – | – | – |
| COc1c(O)cc2c(c1O)[C@@H]1O[C@H](CO)[C@@H](O)[C@H](O)[C@H]1OC2=O [Bergenin] | 0.275 | -0.537 | – | – | 29646.8 | 7026.42 | – | 18336.6 | -0.131 | – | – | – | – |
| CC(=O)OC(C)(C)CC(=O)O[C@H](CC=C(C)C)C1=CC(=O)c2c(O)ccc(O)c2C1=O [Beta-Acetoxyisovalerylshikonin] | -0.24 | 0.548 | – | – | 23464.1 | 18618.6 | – | 21041.3 | – | – | – | 0.154 | – |
| O=C(/C=C/c1ccc(O)c(O)c1)OCCc1ccccc1 [Caffeic acid phenethyl ester] | -0.979 | -0.394 | -0.686 | 11579.1 | 14598.6 | 8559.5 | – | – | – | – | – | – | – |
| COc1cc(CNC(=O)CCCC/C=C/C(C)C)ccc1O [Capsaicin, reference compound] | 0.025 | -0.661 | – | 16179.6 | – | – | – | – | – | 26653.4 | 5705.75 | – | -0.318 |
| COc1cc(O)cc(O)c1C(=O)/C=C/c1ccccc1 [Cardamonin] | -0.394 | 0.139 | – | – | 21621.9 | 14251.5 | – | 17936.7 | -0.127 | – | – | – | – |
| Cc1ccc(C(C)C)cc1O [Carvacrol] | 0.54 | 1.419 | – | – | 32834.5 | 27917.7 | – | 30376.1 | – | – | – | – | 0.979 |
| CC[C@H]1CN2CCc3cc(OC)c(OC)cc3[C@@H]2C[C@@H]1C[C@H]1NCCc2cc(O)c(OC)cc21.Cl.Cl [Cephaeline (dihydrochloride)] | -0.202 | -0.66 | -0.431 | 14823.1 | – | – | – | – | – | 23925.6 | 5720.59 | – | – |
